Experimental data published in patent US20230141198A1, “PYRAZOL[…]” (THE KITASATO INSTITUTE, priority 2019, published 2023).

Columns and labels:
Format in all cases: cell-based
human opioid κ receptor = molecular target: T1, human opioid κ receptor (Homo sapiens, UniProt P41145); experiment: Opioid receptor function test (agonist activity, Lance Ultra cAMP kit), κ receptor; conditions: for Emax: maximum reaction relative to control drug U-69593 taken as 100%
T1 construct: host or cells: CHO cells
From the text: (§1) Opioid Receptor Function Test
(§2) Functional activity of the compound provided by the present invention on μ, δ, and κ opioid receptors was examined.
(§3) Method: Using a Lance Ultra cAMP kit (Perkin Elmer), the functional activity was examined by a predetermined method. In evaluation of agonist activity, CHO cells expressing each of human opioid receptors (δ, μ, and κ: accession numbers and catalog numbers are described below) were reacted with a test compound in an assay buffer (1× HBSS, […], pH 7.4, […] isobutylmethylxanthine (IBMX), 7.5% BSA) in the presence of 10 μM forskolin for 30 minutes. Subsequently, a cAMP detection reagent in the kit was added. One hour later, time-resolved fluorescence measurement was performed using an EnVision plate reader (Perkin Elmer). The test compound and each control drug (δ: SNC 80, μ: DAMGO, κ: U-69593) were evaluated in a concentration range of 10^−12 to 10^−5 M. A dose reaction curve of the test compound was determined from a fluorescence value at 665 nm, and an EC50 value and an Emax value were calculated. The Emax value was determined as a ratio of a maximum reaction of the test compound when a maximum reaction of each control drug was taken as 100%.

human opioid δ receptor = molecular target: T2, human opioid δ receptor (Homo sapiens, UniProt P41143); experiment: Opioid receptor function test (agonist activity, Lance Ultra cAMP kit), δ receptor; conditions: for Emax: maximum reaction relative to control drug SNC 80 taken as 100%
T2 construct: host or cells: CHO cells
From the text: as §1, §2, §3

human opioid μ receptor = molecular target: T3, human opioid μ receptor (Homo sapiens, UniProt P35372); experiment: Opioid receptor function test (agonist activity, Lance Ultra cAMP kit), μ receptor; conditions: for Emax: maximum reaction relative to control drug DAMGO taken as 100%
T3 construct: host or cells: CHO cells
From the text: as §1, §2, §3

T2 sequence (P41143 whole entry): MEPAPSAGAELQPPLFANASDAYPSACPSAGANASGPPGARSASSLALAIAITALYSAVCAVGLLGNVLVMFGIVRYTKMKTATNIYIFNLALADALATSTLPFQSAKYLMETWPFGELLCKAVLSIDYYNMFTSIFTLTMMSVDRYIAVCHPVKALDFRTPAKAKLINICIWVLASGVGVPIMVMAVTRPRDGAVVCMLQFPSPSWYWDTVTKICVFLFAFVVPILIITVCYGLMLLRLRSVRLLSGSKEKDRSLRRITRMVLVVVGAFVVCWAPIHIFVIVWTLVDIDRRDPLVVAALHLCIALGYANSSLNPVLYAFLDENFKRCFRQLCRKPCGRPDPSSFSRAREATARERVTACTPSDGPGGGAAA
T1 sequence (P41145 whole entry): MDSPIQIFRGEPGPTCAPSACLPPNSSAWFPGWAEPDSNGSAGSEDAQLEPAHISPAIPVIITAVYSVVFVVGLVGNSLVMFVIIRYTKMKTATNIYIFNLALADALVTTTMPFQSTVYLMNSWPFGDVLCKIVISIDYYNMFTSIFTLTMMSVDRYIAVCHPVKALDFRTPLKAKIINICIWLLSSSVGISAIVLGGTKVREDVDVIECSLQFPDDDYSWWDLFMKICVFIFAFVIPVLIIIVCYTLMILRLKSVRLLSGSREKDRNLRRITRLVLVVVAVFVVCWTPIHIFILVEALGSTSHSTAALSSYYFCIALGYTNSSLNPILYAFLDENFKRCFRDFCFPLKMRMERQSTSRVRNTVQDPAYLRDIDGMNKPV
T3 sequence (P35372 whole entry): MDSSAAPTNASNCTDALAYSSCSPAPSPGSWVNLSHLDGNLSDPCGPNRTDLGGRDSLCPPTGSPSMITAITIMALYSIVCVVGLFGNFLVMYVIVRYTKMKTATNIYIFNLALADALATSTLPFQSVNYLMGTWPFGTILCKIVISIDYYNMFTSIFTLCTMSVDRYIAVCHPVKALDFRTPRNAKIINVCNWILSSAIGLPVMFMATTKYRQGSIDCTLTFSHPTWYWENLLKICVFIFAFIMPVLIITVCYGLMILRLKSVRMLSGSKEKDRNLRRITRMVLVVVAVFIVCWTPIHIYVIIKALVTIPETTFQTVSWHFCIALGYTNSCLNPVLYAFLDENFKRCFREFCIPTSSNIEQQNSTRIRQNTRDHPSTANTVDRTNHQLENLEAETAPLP

Compound | EC50 (human opioid κ receptor) | Emax (human opioid κ receptor) | EC50 (human opioid δ receptor) | Emax (human opioid δ receptor) | EC50 (human opioid μ receptor) | Emax (human opioid μ receptor)
Cc1nn(C2CCN(C)CC2)c2c1C[C@@]1(O)[C@H]3Cc4ccc(O)cc4[C@@]1(CCN3CC1CC1)C2 [Compound 91, (6R,6aS,11aR)-14-(cyclopropylmethyl)-8-methyl-10-(1-methylpiperidin-4-yl)-5,6,10,11-tetrahydro-6,11a-(epiminoethano)naphtho[2,1-f]indazole-2,6a(7H)-diol] | 15 nM | 25% | 0.23 nM | 112% | 32 nM | 12%
Cc1c2c(nn1C1CCSCC1)C[C@]13CCN(CC4CC4)[C@H](Cc4ccc(O)cc41)[C@]3(O)C2 [Compound 90, (6R,6aS,11aR)-14-(cyclopropylmethyl)-8-methyl-9-(tetrahydro-2H-thiopyran-4-yl)-5,6,9,11-tetrahydro-6,11a-(epiminoethano)naphtho[2,1-f]indazole-2,6a(7H)-diol] | 8.1 nM | 15% | 0.092 nM | 116% | – | –
Cc1c2c(nn1C1CCC1)C[C@]13CCN(CC4CC4)[C@H](Cc4ccc(O)cc41)[C@]3(O)C2 [Compound 85, (6R,6aS,11aR)-9-cyclobutyl-14-(cyclopropylmethyl) methyl-5,6,9,11-tetrahydro-6,11a-(epiminoethano)naphtho[2,1-f]indazole-2,6a(7H)-diol] | 17 nM | 25% | 0.092 nM | 104% | 16 nM | 26%
Cc1c2c(nn1-c1ccccc1)C[C@]13CCN(CC4CC4)[C@H](Cc4ccc(O)cc41)[C@]3(O)C2 [Compound 20, (6R,6aS,11aR)-14-(cyclopropylmethyl)-8-methyl-9-phenyl-5,6,9,11-tetrahydro-6,11a-(epiminoethano)naphtho[2,1-f]indazole-2,6a(7H)-diol] | 8.7 nM | 12% | 0.89 nM | 86% | 8.1 nM | 10%
Cc1c2c(nn1C1CC1)C[C@]13CCN(CC4CC4)[C@H](Cc4ccc(O)cc41)[C@]3(O)C2 [Compound 83, (6R,6aS,11aR)-9-cyclopropyl-14-(cyclopropylmethyl)-8-methyl-5,6,9,11-tetrahydro-6,11a-(epiminoethano)naphtho[2,1-f]indazole-2,6a(7H)-diol] | 50 nM | 30% | 0.13 nM | 99% | 11 nM | 16%
Cc1nn(-c2ccccc2)c2c1C[C@@]1(O)[C@H]3Cc4ccc(O)cc4[C@@]1(CCN3C)C2 [Compound 61, (6R,6aS,11aR)-8,14-dimethyl-10-phenyl-5,6,10,11-tetrahydro-6,11a-(epiminoethano)naphtho[2,1-f]indazole-2,6a(7H)-diol] | 1030 nM | 14% | 15 nM | 91% | 257 nM | 63%
Cc1c2c(nn1C1CCN(C)CC1)C[C@]13CCN(CC4CC4)[C@H](Cc4ccc(O)cc41)[C@]3(O)C2 [Compound 92, (6R,6aS,11aR)-14-(cyclopropylmethyl)-8-methyl-9-(1-methylpiperidin-4-yl)-5,6,9,11-tetrahydro-6,11a-(epiminoethano)naphtho[2,1-f]indazole-2,6a(7H)-diol] | 16 nM | 20% | 0.51 nM | 103% | 52 nM | 17%
Cc1c2c(nn1C1CCCCC1)C[C@]13CCN(CC4CC4)[C@H](Cc4ccc(O)cc41)[C@]3(O)C2 [Compound 33, (6R,6aS,11aR)-9-cyclohexyl-14-(cyclopropylmethyl)-8-methyl-5,6,9,11-tetrahydro-6,11a-(epiminoethano)naphtho[2,1-f]indazole-2,6a(7H)-diol] | 44 nM | 13% | 0.14 nM | 108% | – | –
Cc1nn(-c2ccncc2)c2c1C[C@@]1(O)[C@H]3Cc4ccc(O)cc4[C@@]1(CCN3CC1CC1)C2 [Compound 28, (6R,6aS,11aR)-14-(cyclopropylmethyl)-8-methyl-10-(pyridin-4-yl)-5,6,10,11-tetrahydro-6,11a-(epiminoethano)naphtho[2,1-f]indazole-2,6a(7H)-diol] | 58 nM | 15% | 0.33 nM | 101% | – | –
Cc1nn(C2CC2)c2c1C[C@@]1(O)[C@H]3Cc4ccc(O)cc4[C@@]1(CCN3CC1CC1)C2 [Compound 82, (6R,6aS,11aR)-10-cyclopropyl-14-(cyclopropylmethyl)-8-methyl-5,6,10,11-tetrahydro-6,11a-(epiminoethano)naphtho[2,1-f]indazole-2,6a(7H)-diol] | – | – | 0.93 nM | 39% | – | –
Cc1nn(C2CCSCC2)c2c1C[C@@]1(O)[C@H]3Cc4ccc(O)cc4[C@@]1(CCN3CC1CC1)C2 [Compound 89, (6R,6aS,11aR)-14-(cyclopropylmethyl)-8-methyl-10-(tetrahydro-2H-thiopyran-4-yl)-5,6,10,11-tetrahydro-6,11a-(epiminoethano)naphtho[2,1-f]indazole-2,6a(7H)-diol] | – | – | 0.069 nM | 112% | – | –
Cc1nn(-c2ccccc2)c2c1C[C@@]1(O)[C@H]3Cc4ccc(O)cc4[C@@]1(CCN3CC1CC1)C2 [Compound 21, (6R,6aS,11aR)-14-(cyclopropylmethyl) methyl-10-phenyl-5,6,10,11-tetrahydro-6,11a-(epiminoethano)naphtho[2,1-f]indazole-2,6a(7H)-diol] | – | – | 0.76 nM | 81% | – | –
Cc1nn(C(=O)c2ccccc2)c2c1C[C@@]1(O)[C@H]3Cc4ccc(O)cc4[C@@]1(CCN3CC1CC1)C2 [Compound 36, ((6R,6aS,11aR)-14-(cyclopropylmethyl)-2,6a-dihydroxy-8-methyl-6,6a,7,11-tetrahydro-6,11a-(epiminoethano)naphtho[2,1-f]indazol-10(5H)-yl)(phenyl)methanone] | – | – | 3.4 nM | 65% | – | –
Cc1c2c(nn1C1CCCC1)C[C@]13CCN(CC4CC4)[C@H](Cc4ccc(O)cc41)[C@]3(O)C2 [Compound 87, (6R,6aS,11aR)-9-cyclopentyl-14-(cyclopropylmethyl)-8-methyl-5,6,9,11-tetrahydro-6,11a-(epiminoethano)naphtho[2,1-f]indazole-2,6a(7H)-diol] | 59 nM | 30% | 0.11 nM | 106% | 28 nM | 24%
O=c1c2c([nH]n1-c1ccccc1)C[C@]13CCN(CC4CC4)[C@H](Cc4ccc(O)cc41)[C@]3(O)C2 [Compound 68, (6R,6aS,11aR)-14-(cyclopropylmethyl)-2,6a-dihydroxy-9-phenyl-6,6a,7,9,10,11-hexahydro-6,11a-(epiminoethano)naphtho[2,1-f]indazol-8(5H)-one] | – | – | 1.4 nM | 100% | – | –
